Laboratory results: ChEMBL document CHEMBL1201862, “PubChem BioAssay data set” (2004)
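96-well plates; 48 h exposure; 5 concentrations. Endpoints by linear interpolation between flanking doses. Not reached: highest tested concentration assigned. Abbreviation: GI50, concentration required for 50% inhibition of growth.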 Calls of active or inactive are those of the source. No stated cut-off is given here; in the data, active = GI50 up to about 1.1 µM and inactive = higher.

Legend:
Assay in all cases: growth of human tumour cells (NCI), 48 h
DU-145 = system: DU-145
RXF 393 = system: RXF 393
HCT-116 = system: HCT-116
BT-549 = system: BT-549
SNB-19 = system: SNB-19
ACHN = system: ACHN
IGROV-1 = system: IGROV-1
COLO 205 = system: COLO 205
NCI-H226 = system: NCI-H226
UACC-62 = system: UACC-62
HCT-15 = system: HCT-15
Hs-578T = system: Hs-578T
NCI-H23 = system: NCI-H23
SR = system: SR
CAKI-1 = system: CAKI-1
SN12C = system: SN12C
M14 = system: M14
HT-29 = system: HT-29
Malme-3M = system: Malme-3M
OVCAR-8 = system: OVCAR-8
CCRF-CEM = system: CCRF-CEM
PC-3 = system: PC-3
A549 = system: A549
NCI-H460 = system: NCI-H460
OVCAR-3 = system: OVCAR-3
RPMI-8226 = system: RPMI-8226
HL-60 = system: HL-60
SK-MEL-5 = system: SK-MEL-5
NCI/ADR-RES = system: NCI/ADR-RES
SW-620 = system: SW-620
SK-MEL-28 = system: SK-MEL-28
UACC-257 = system: UACC-257
T47D = system: T47D
LOX IMVI = system: LOX IMVI
K562 = system: K562
MDA-N = system: MDA-N
HCC 2998 = system: HCC 2998
MOLT-4 = system: MOLT-4
U-251 = system: U-251
MCF7 = system: MCF7
SK-MEL-2 = system: SK-MEL-2
A498 = system: A498
SK-OV-3 = system: SK-OV-3
SNB-75 = system: SNB-75
HOP-62 = system: HOP-62
MDA-MB-231 = system: MDA-MB-231
SF-268 = system: SF-268
KM12 = system: KM12
OVCAR-4 = system: OVCAR-4
HOP-92 = system: HOP-92
MDA-MB-435 = system: MDA-MB-435
786-0 = system: 786-0
SF-539 = system: SF-539
OVCAR-5 = system: OVCAR-5
NCI-H522 = system: NCI-H522
UO-31 = system: UO-31
TK-10 = system: TK-10
EKVX = system: EKVX

With `C=CCc1cccc2cc(C(=O)Nc3ccccc3)c(=N)oc12` the GI50 (DU-145) was > 100 µM (inactive), the GI50 (RXF 393) was > 100 µM (inactive) and the GI50 (HCT-116) was 18.1 µM (inactive). For the same molecule, the GI50 (BT-549) was > 100 µM (inactive), the GI50 (SNB-19) was > 100 µM (inactive) and the GI50 (ACHN) was 10.1 µM (inactive). The GI50 (IGROV-1) was 33.2 µM (inactive), the GI50 (COLO 205) was > 100 µM (inactive) and the GI50 (NCI-H226) was 36.6 µM (inactive). The GI50 (UACC-62) was 41.1 µM (inactive), the GI50 (HCT-15) was 33.6 µM and the GI50 (Hs-578T) was 37.6 µM (inactive). The GI50 (NCI-H23) was 79.8 µM (inactive), the GI50 (SR) was > 100 µM (inactive) and the GI50 (CAKI-1) was 63.2 µM (inactive). The GI50 (SN12C) was 55.8 µM (inactive), the GI50 (M14) was 60.7 µM (inactive) and the GI50 (HT-29) was > 100 µM (inactive). For the same molecule, the GI50 (Malme-3M) was 7.14 µM (inactive), the GI50 (OVCAR-8) was > 100 µM (inactive) and the GI50 (CCRF-CEM) was > 100 µM (inactive). The GI50 (PC-3) was 39.2 µM (inactive), the GI50 (A549) was 15 µM (inactive) and the GI50 (NCI-H460) was 63.2 µM (inactive). For the same molecule, the GI50 (OVCAR-3) was > 100 µM (inactive), the GI50 (RPMI-8226) was > 100 µM (inactive) and the GI50 (HL-60) was > 100 µM (inactive). For the same molecule, the GI50 (SK-MEL-5) was 21.7 µM (inactive), the GI50 (NCI/ADR-RES) was > 100 µM (inactive) and the GI50 (SW-620) was > 100 µM (inactive). For the same molecule, the GI50 (SK-MEL-28) was 80.4 µM (inactive), the GI50 (UACC-257) was > 100 µM (inactive) and the GI50 (T47D) was 11.9 µM (inactive). The GI50 (LOX IMVI) was > 100 µM (inactive), the GI50 (K562) was 64 µM (inactive) and the GI50 (MDA-N) was 70.6 µM (inactive). The GI50 (HCC 2998) was 4.8 µM (inactive), the GI50 (MOLT-4) was > 100 µM (inactive) and the GI50 (U-251) was > 100 µM (inactive). For the same molecule, the GI50 (MCF7) was 7.11 µM (inactive), the GI50 (SK-MEL-2) was 8.47 µM (inactive) and the GI50 (A498) was 23.2 µM (inactive). The GI50 (SK-OV-3) was 61.7 µM (inactive), the GI50 (SNB-75) was 52.4 µM (inactive) and the GI50 (HOP-62) was > 100 µM (inactive). For the same molecule, the GI50 (MDA-MB-231) was > 100 µM (inactive), the GI50 (SF-268) was > 100 µM (inactive) and the GI50 (KM12) was 38.9 µM (inactive). The GI50 (OVCAR-4) was 15.6 µM (inactive), the GI50 (HOP-92) was > 100 µM (inactive) and the GI50 (MDA-MB-435) was 27.9 µM (inactive). For the same molecule, the GI50 (786-0) was 30.3 µM (inactive), the GI50 (SF-539) was 28.2 µM (inactive) and the GI50 (OVCAR-5) was 38.8 µM (inactive). The GI50 (NCI-H522) was 10.4 µM (inactive).

With `O=C(Nc1ccccc1)c1cc(S(=O)(=O)Nc2n[nH]c(=O)n2-c2ccccc2)c(S)cc1Cl` the GI50 (DU-145) was > 100 µM (inactive), the GI50 (RXF 393) was > 100 µM (inactive) and the GI50 (HCT-116) was > 100 µM (inactive). For the same molecule, the GI50 (BT-549) was > 100 µM (inactive), the GI50 (SNB-19) was > 100 µM (inactive) and the GI50 (IGROV-1) was > 100 µM (inactive). For the same molecule, the GI50 (COLO 205) was > 100 µM (inactive), the GI50 (NCI-H226) was > 100 µM (inactive) and the GI50 (UACC-62) was > 100 µM (inactive). For the same molecule, the GI50 (HCT-15) was > 100 µM, the GI50 (Hs-578T) was > 100 µM (inactive) and the GI50 (SR) was > 100 µM (inactive). For the same molecule, the GI50 (CAKI-1) was > 100 µM (inactive), the GI50 (SN12C) was > 100 µM (inactive) and the GI50 (M14) was > 100 µM (inactive). For the same molecule, the GI50 (UO-31) was > 100 µM (inactive), the GI50 (HT-29) was > 100 µM (inactive) and the GI50 (Malme-3M) was > 100 µM (inactive). For the same molecule, the GI50 (OVCAR-8) was > 100 µM (inactive), the GI50 (PC-3) was > 100 µM (inactive) and the GI50 (A549) was > 100 µM (inactive). The GI50 (NCI-H460) was > 100 µM (inactive), the GI50 (OVCAR-3) was > 100 µM (inactive) and the GI50 (RPMI-8226) was > 100 µM (inactive). The GI50 (HL-60) was > 100 µM (inactive), the GI50 (SK-MEL-5) was > 100 µM (inactive) and the GI50 (NCI/ADR-RES) was > 100 µM (inactive). The GI50 (SW-620) was > 100 µM (inactive), the GI50 (SK-MEL-28) was > 100 µM (inactive) and the GI50 (UACC-257) was > 100 µM (inactive). For the same molecule, the GI50 (T47D) was > 100 µM (inactive), the GI50 (LOX IMVI) was > 100 µM (inactive) and the GI50 (K562) was > 100 µM (inactive). The GI50 (MDA-N) was > 100 µM (inactive), the GI50 (HCC 2998) was > 100 µM (inactive) and the GI50 (MOLT-4) was > 100 µM (inactive). The GI50 (U-251) was > 100 µM (inactive), the GI50 (MCF7) was > 100 µM (inactive) and the GI50 (SK-MEL-2) was > 100 µM (inactive). For the same molecule, the GI50 (A498) was > 100 µM (inactive), the GI50 (SK-OV-3) was > 100 µM (inactive) and the GI50 (SNB-75) was > 100 µM (inactive). The GI50 (MDA-MB-231) was > 100 µM (inactive), the GI50 (SF-268) was > 100 µM (inactive) and the GI50 (KM12) was > 100 µM (inactive). For the same molecule, the GI50 (TK-10) was > 100 µM (inactive), the GI50 (EKVX) was > 100 µM (inactive) and the GI50 (OVCAR-4) was > 100 µM (inactive). For the same molecule, the GI50 (HOP-92) was > 100 µM (inactive), the GI50 (MDA-MB-435) was > 100 µM (inactive) and the GI50 (786-0) was > 100 µM (inactive). For the same molecule, the GI50 (SF-539) was > 100 µM (inactive), the GI50 (OVCAR-5) was > 100 µM (inactive) and the GI50 (NCI-H522) was > 100 µM (inactive).
